The source of these data is US20170066717A1, “NEW PHENYLAZETIDINECARBOXYLATE OR -CARBOXAMIDE COMPOUNDS” (INVENTIVA, priority 2014, published 2017).

In one assay the target is T1, NURR-1/RXRα (Homo sapiens, UniProt P19793).
T1 construct: expressed in transfected cells; host or cells: Cos-7 cells
Kind of assay: Transactivation test, NURR-1-Gal4/RXRα, luciferase reporter in Cos-7 cells. It counts as cell-based. To be noted: for Emax: COS-7, induction level relative to reference XCT0135908 at 2×10^−5 M (=100%), read-out: hNurr1_RXRaFL Emax (%); for EC50: Cos-7 cells, NURR-1-Gal4/RXRα, luciferase reporter, read-out: hNurr1_RXRaFL EC50. The procedure: (§1) The ability of the compounds according to the invention to behave as an activator of the heterodimers formed by the NURR-1 nuclear receptor and the RXR nuclear receptors was measured by means of an in vitro test. A transactivation test was used as primary selection (screening) test. Cos-7 cells were cotransfected with a plasmid expressing a chimera of the human NURR-1-Gal4 receptor, a plasmid expressing the human RXR receptor (RXRα or RXRγ receptor) and a 5Gal4pGL3-TK-Luc reporter plasmid. The transfctions were carried out using a chemical agent (Jet PEI). The transfected cells were distributed into 384-well plates and left to stand for 21 hours. At time 24 hours the culture medium was changed. The test products were added (final concentration of between 10^''4 and 3×10^-10 M) to the culture medium. After incubation overnight, the lucifeiase expression was measured after addition of SteadyGlo according to the instructions of the manufacturer (Promega). […] The induction levels (Emax) were calculated relative to the basal activity of each heterodimer.

The next assay has as its target T2, NURR-1/RXRγ (Homo sapiens, UniProt P48443).
T2 construct: expressed in transfected cells; host or cells: Cos-7 cells
Kind of assay: Transactivation test, NURR-1-Gal4/RXRγ, luciferase reporter in Cos-7 cells. It counts as cell-based. To be noted: for Emax: COS-7, induction level relative to reference XCT0135908 at 2×10^−5 M (=100%), read-out: hNurr1_RXRgFL Emax (%); for EC50: Cos-7 cells, NURR-1-Gal4/RXRγ, luciferase reporter, read-out: hNurr1_RXRgFL EC50. The procedure:
as §1

Molecules are shown by their SMILES.

T2 sequence (P48443 whole entry): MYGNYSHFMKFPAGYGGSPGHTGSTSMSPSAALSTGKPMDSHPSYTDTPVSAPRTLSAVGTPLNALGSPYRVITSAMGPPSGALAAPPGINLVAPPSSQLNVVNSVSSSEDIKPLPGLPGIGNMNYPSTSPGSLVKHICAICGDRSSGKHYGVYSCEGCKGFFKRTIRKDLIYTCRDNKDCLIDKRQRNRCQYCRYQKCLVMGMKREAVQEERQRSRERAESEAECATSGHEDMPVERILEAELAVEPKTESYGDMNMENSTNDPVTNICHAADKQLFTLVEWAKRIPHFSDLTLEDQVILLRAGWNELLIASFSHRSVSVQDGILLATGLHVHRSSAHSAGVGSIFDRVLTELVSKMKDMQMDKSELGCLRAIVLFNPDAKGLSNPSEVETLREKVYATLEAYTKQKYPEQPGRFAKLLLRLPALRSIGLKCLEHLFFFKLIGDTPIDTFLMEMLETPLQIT
T2 sequence (P43354 whole entry partner): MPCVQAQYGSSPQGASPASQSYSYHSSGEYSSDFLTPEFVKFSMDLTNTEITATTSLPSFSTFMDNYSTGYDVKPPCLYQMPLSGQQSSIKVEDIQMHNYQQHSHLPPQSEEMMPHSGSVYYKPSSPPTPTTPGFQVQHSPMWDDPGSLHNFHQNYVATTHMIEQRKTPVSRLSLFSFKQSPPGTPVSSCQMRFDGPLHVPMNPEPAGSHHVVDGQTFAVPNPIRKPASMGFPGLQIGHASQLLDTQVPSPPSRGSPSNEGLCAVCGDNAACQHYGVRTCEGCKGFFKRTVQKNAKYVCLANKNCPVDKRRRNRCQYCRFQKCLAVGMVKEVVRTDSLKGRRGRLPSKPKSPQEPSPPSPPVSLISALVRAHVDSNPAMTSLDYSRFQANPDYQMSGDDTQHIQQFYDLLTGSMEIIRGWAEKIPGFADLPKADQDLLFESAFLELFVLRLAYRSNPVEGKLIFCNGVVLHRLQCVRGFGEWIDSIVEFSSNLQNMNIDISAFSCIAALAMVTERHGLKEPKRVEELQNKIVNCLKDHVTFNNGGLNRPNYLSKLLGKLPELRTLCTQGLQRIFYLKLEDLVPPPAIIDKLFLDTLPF
T2 sequence (P04386 1-147 partner limits assumed): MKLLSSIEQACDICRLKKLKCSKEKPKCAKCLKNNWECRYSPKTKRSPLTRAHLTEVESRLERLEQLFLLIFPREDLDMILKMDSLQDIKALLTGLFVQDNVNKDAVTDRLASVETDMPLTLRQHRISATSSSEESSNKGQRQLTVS
T1 sequence (P19793 whole entry): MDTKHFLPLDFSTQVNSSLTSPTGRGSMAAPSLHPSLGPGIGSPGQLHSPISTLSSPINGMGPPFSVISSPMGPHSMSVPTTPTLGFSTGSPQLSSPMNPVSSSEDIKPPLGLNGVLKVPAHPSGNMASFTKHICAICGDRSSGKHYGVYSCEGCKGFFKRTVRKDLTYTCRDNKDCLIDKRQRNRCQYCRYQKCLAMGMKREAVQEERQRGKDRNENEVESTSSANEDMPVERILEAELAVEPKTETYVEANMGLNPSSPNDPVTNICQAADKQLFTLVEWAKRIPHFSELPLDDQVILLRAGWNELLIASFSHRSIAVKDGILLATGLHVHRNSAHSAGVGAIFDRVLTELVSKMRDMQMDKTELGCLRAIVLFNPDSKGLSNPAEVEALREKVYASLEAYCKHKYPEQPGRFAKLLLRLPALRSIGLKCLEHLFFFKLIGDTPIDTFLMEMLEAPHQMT
T1 sequence (P43354 whole entry partner): as the sequence (P43354 whole entry partner) above
T1 sequence (P04386 1-147 partner limits assumed): as the sequence (P04386 1-147 partner limits assumed) above

Take `Cc1cc(-c2cccc(C(F)(F)F)c2F)cc(N2CC(C(=O)O)C2)c1` [Example 23, 1-[3-[2-fluoro-3-(trifluoromethyl)phenyl]-5-methylphenyl]azetidine-3-carboxylic acid]: on NURR-1/RXRα, the Emax amounted to 111% and the EC50 worked out at 13 nM. Moreover, on NURR-1/RXRγ, the Emax was 107% and the EC50 stood at 30 nM.

For `Cc1cc(-c2cc(C(F)(F)F)ccc2Cl)cc(N2CC(C(=O)O)C2)c1` [Example 24, 1-[3-[2-chloro-5-(trifluoromethyl)phenyl]-5-methylphenyl]azetidine-3-carboxylic acid], on NURR-1/RXRα, the Emax stood at 114% and the EC50 is 3 nM. In addition, at NURR-1/RXRγ, the Emax was determined as 104% and the EC50 was 13 nM.

In the case of `Cc1cc(-c2cccc3c2OC(F)(F)O3)cc(N2CC(C(=O)O)C2)c1` [Example 25, 1-[3-(2,2-difluoro-1,3-benzodioxal-4-yl)-5-methylphenyl]azetidine-3-carboxylic acid], the Emax on NURR-1/RXRα was 99%; at NURR-1/RXRγ, 109%. Further, the EC50 at NURR-1/RXRα is 19 nM; at NURR-1/RXRγ, 50 nM.

`Cc1cc(-c2cccc(N(C)C)c2)cc(N2CC(C(=O)O)C2)c1` [Example 26, 1-[3-[3-(dimethylamino)phenyl]-5-methylphenyl]azetidine-3-carboxylic acid]: on NURR-1/RXRα, the Emax turned out to be 108% and the EC50 came out at 124 nM. Further, on NURR-1/RXRγ, the Emax amounted to 116% and the EC50 is 314 nM.

For the molecule `Cc1cc(-c2cccc(Cl)c2)cc(N2CC(C(=O)O)C2)c1` [Example 27, 1-[3-[3-chlorophenyl]-5-methylpehnyl]azetidine-3-carboxylic acid], the Emax on NURR-1/RXRα was found to be 119%; on NURR-1/RXRγ it was 114%. Moreover, the EC50 on NURR-1/RXRα was determined as 165 nM; at NURR-1/RXRγ it was 232 nM.

Take `Cn1cc(-c2cc(N3CC(C(=O)O)C3)cc(C(F)(F)F)c2)c2ccc(C(F)(F)F)cc21` [Example 28, 1-[3-[1-methyl-6-(trifluoromethyl)indol-3-yl]-5-(trifluoromethyl)phenyl]azetidine-3-carboxylic acid]: the Emax at NURR-1/RXRα is 76%; at NURR-1/RXRγ, 58%. Also, the results for the EC50 at NURR-1/RXRα and at NURR-1/RXRγ were 45 nM and 70 nM, respectively.

Take `Cn1cc(-c2cc(Cl)cc(N3CC(C(=O)O)C3)c2)c2ccc(C(F)(F)F)cc21` [Example 29]: the Emax was 78% on NURR-1/RXRα and 85% on NURR-1/RXRγ.

For `Cn1cc(-c2cccc(N3CC(C(=O)O)C3)c2)c2ccc(C(F)(F)F)cc21` [Example 30, 1-[3-[1-methyl-6-(trifluoromethyl)indol-3-yl]phenyl]azetidine-3-carboxylic acid], on NURR-1/RXRα, the Emax came to 102% and the EC50 is 14 nM. On NURR-1/RXRγ, the Emax is 97% and the concentration for a half-maximal effect (EC50) is 42 nM.

Consider `CC(C)(C)c1cccc(-c2cccc(N3CC(C(=O)O)C3)c2)n1` [Example 31, 2-tert-butyl-6-[3-(3-carboxyazetidine-1-yl)phenyl]pyridiuium chlrodie], for which the Emax turned out to be 62% at NURR-1/RXRα and 59% on NURR-1/RXRγ. The EC50 was determined as 153 nM at NURR-1/RXRα and 401 nM on NURR-1/RXRγ.

As to `O=C(O)C1CN(c2cccc(-c3ccnc(C(F)(F)F)c3)c2)C1` [Example 32, 1-[3-[2-(trifluoromethyl)-4-pyridyl]phenyl]azetidine-3-carboxylic acid], on NURR-1/RXRα, the Emax worked out at 71% and the EC50 is > 5000 nM. Moreover, on NURR-1/RXRγ, the maximal response (Emax) came to 62% and the 50% effective concentration (EC50) is > 5000 nM.

Turning to `Cc1nc(-c2ccccc2)oc1-c1cccc(N2CC(C(=O)O)C2)c1` [Example 33, 1-[3-(4-methyl-2-phenyl-oxazol-5-yl)phenyl]azetidine-3-carboxylic acid], on NURR-1/RXRα, the Emax stood at 119% and the EC50 was > 5000 nM. At NURR-1/RXRγ, the Emax was 71% and the EC50 is > 5000 nM.

Take `O=C(O)C1CN(c2cccc(-c3cncc(C(F)(F)F)c3)c2)C1` [Example 34, 1-[3-[5-(trifluoromethyl)3-pyridyl]phenyl]azetidine-3-carboxylic acid]: at NURR-1/RXRα, the Emax turned out to be 69% and the EC50 was > 5000 nM. For the same molecule, at NURR-1/RXRγ, the maximum response (Emax) turned out to be 64% and the EC50 is > 5000 nM.

For `Cc1nc(C(F)(F)F)nc(-c2cccc(N3CC(C(=O)O)C3)c2)c1C` [Example 35, 1-[3-[5,6-dimethyl-2-(trifloruomethyl)pyrrimidin-4-yl]phenyl]azetidine-3-carboxylic acid], at NURR-1/RXRα, the Emax turned out to be 45% and the EC50 was > 5000 nM. Moreover, on NURR-1/RXRγ, the Emax was found to be 44% and the EC50 was > 5000 nM.

For the molecule `O=C(O)C1CN(c2cccc(-c3ncc(Cl)c4ccccc34)c2)C1` [Example 36, 1-[3-(4-chloro-1-isoquinolyl)phenyl]azetidine-3-carboxylic acid], the maximal effect (Emax) stood at 140% at NURR-1/RXRα and 121% at NURR-1/RXRγ. Besides, the EC50 at NURR-1/RXRα was found to be 449 nM; on NURR-1/RXRγ, 1000 nM.

As for `O=C(O)C1CN(c2cccc(-c3cc4ccccc4c(Cl)n3)c2)C1` [Example 37, 1-[3-(1-chloro-3-isoquinoyl)phenyl]azetidine-3-carboxylic acid], at NURR-1/RXRα, the Emax was determined as 62% and the EC50 is > 5000 nM. At NURR-1/RXRγ, the Emax came out at 99% and the EC50 was 3820 nM.

For the molecule `O=C(O)C1CN(c2cccc(-c3cccc(C(F)(F)F)n3)c2)C1` [Example 38, 1-[3-[6-(trifluoromethyl)-2-pyridyl]phenyl]azetidine-3-carboxylic acid], the figures for the maximal effect (Emax) on NURR-1/RXRα and on NURR-1/RXRγ were 75% and 33%, respectively. For the same molecule, the EC50 at NURR-1/RXRα and at NURR-1/RXRγ was > 5000 nM throughout.

As for `Cc1cc(-c2cccc(N3CC(C(=O)O)C3)c2)nc(-c2ccccc2)n1` [Example 39, 1-[3-(6-methyl-2-phenylpyrimidin-4-yl)phenyl]azetidine-3-carboxylic acid], at NURR-1/RXRα, the maximal response (Emax) turned out to be 104% and the EC50 stood at 208 nM. In addition, at NURR-1/RXRγ, the Emax is 110% and the EC50 was found to be 472 nM.

With `O=C(O)C1CN(c2cccc(-c3cccc(-c4ccccc4)n3)c2)C1` [Example 40, 1-[3-(6-phenyl-2-pyridyl)phenyl]azetidine-3-carboxylic acid], on NURR-1/RXRα, the Emax was found to be 80% and the EC50 worked out at 557 nM. In addition, at NURR-1/RXRγ, the Emax was 62% and the EC50 amounted to 880 nM.

With `Cc1cn(-c2cccc(N3CC(C(=O)O)C3)c2)c2ccc(C(F)(F)F)cc12` [Example 41, 1-[3-[3-methyl-5-(trifluoromethyl)indol-1-yl]phenyl]azetidine-3-carboxylic acid], at NURR-1/RXRα, the Emax amounted to 134% and the half-maximal effective concentration (EC50) turned out to be 0.5 nM. In addition, at NURR-1/RXRγ, the maximal effect (Emax) turned out to be 123% and the EC50 turned out to be 0.7 nM.

Take `Cc1cn(-c2cc(Cl)cc(N3CC(C(=O)O)C3)c2)c2ccc(C(F)(F)F)cc12` [Example 42, 1-[3-chloroe-5-[3-methyl-5-(trifluoromethyl)indol-1-yl]phenyl]azetidine-3-carboxylic acid]: at NURR-1/RXRα, the Emax was 81% and the EC50 worked out at 5 nM. Further, at NURR-1/RXRγ, the Emax is 67% and the EC50 was > 5000 nM.

`Cc1cn(-c2cc(N3CC(C(=O)O)C3)cc(C(F)(F)F)c2)c2ccc(C(F)(F)F)cc12` [Example 43, 1-[3-[3-methyl-5-(trifluoromethyl)indol-1-yl]-5-(trifluoromethyl)phenyl]azetidine-3-carboxylic acid]: the results for the Emax at NURR-1/RXRα and on NURR-1/RXRγ were 84% and 90%, respectively. Further, the EC50 on NURR-1/RXRα is 6 nM; at NURR-1/RXRγ it was 9 nM.

Turning to `O=C(O)C1CN(c2cccc(-n3ccc4cc(C(F)(F)F)ccc43)c2)C1` [Example 44, 1-[3-[5-(trifluoromethyl)indol-1-yl]phenyl]azetidine-3-carboxylic acid], the maximal effect (Emax) on NURR-1/RXRα and on NURR-1/RXRγ was 108% in each case. For the same molecule, the EC50 at NURR-1/RXRα came out at 7 nM; at NURR-1/RXRγ it was 8 nM.

On to `Cc1cc(N2CC(C(=O)O)C2)cc(-n2cc(C)c3cc(Cl)ccc32)c1` [Example 45], for which, on NURR-1/RXRα, the Emax is 96% and the EC50 came out at 2 nM. At NURR-1/RXRγ, the Emax came to 107% and the EC50 turned out to be 3 nM.

On to `Cc1cn(-c2cccc(N3CC(C(=O)O)C3)c2)c2ccc(C3CC3)cc12` [Example 46], for which, on NURR-1/RXRα, the Emax stood at 104% and the EC50 worked out at 19 nM. On NURR-1/RXRγ, the Emax worked out at 130% and the EC50 is 31 nM.

In the case of `COc1ccc2c(ccn2-c2cc(C)cc(N3CC(C(=O)O)C3)c2)c1` [Example 47, 1-[3-(5-methoxyindol-1-yl)-5-methylphenyl]azetidine-3-carboxylic acid], at NURR-1/RXRα, the Emax is 91% and the EC50 was found to be 368 nM. Also, at NURR-1/RXRγ, the Emax came to 95% and the EC50 amounted to 542 nM.

On to `COc1ccc2c(c1)c(C)cn2-c1cc(C)cc(N2CC(C(=O)O)C2)c1` [Example 48, 1-[3-(5-methoxy-3-methylindol-1-yl)-5-methylphenyl]azetidine-3-carboxylic acid], for which, at NURR-1/RXRα, the Emax turned out to be 96% and the EC50 worked out at 37 nM. Moreover, on NURR-1/RXRγ, the Emax was 129% and the EC50 stood at 123 nM.
